The target of data set [1] is T1, Relaxin receptor 1 (Mus musculus, UniProt Q6R6I7).
T1 sequence (Q6R6I7 whole entry): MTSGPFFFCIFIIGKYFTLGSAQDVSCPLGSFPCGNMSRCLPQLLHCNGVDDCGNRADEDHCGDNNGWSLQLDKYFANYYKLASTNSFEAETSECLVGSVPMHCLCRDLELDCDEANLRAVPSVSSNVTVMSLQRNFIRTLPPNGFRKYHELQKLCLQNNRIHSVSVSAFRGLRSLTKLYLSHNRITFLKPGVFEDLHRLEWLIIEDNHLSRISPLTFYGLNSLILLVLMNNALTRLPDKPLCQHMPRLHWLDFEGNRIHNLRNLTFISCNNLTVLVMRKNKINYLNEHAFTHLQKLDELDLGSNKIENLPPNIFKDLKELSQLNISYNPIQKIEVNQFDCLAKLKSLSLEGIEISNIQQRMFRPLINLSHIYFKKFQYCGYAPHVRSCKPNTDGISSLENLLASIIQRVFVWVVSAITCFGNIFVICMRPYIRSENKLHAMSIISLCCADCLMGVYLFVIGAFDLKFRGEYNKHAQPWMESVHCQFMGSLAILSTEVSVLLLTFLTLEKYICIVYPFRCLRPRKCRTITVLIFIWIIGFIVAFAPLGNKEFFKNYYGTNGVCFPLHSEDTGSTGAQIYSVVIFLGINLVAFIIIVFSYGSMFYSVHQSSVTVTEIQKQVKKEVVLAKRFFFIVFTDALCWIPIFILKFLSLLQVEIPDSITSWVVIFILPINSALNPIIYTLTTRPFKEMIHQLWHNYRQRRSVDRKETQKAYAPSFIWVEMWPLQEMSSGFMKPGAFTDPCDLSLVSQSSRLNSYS
The data set can be described thus: Partial agonist activity at mouse RXFP1 expressed in HEK293 cells assessed as intracellular cAMP accumulation incubated for 30 mins by HTRF assay. Format: functional, cell-based. For orientation: Changes in cAMP serve as a functional read-out for many G protein-coupled receptors.

The nature of data set [2]: Microsomal stability in rat liver microsomes assessed as compound remaining measured after 30 mins. The following applies: read-out: Stability. In kind it is ADME, Microsome. On the technique in general: Liver microsomes are vesicles of endoplasmic reticulum, rich in cytochrome P450 enzymes.
Data set [3] deals with T2, Relaxin receptor 1 (Rattus norvegicus, UniProt Q6R6I6).
T2 sequence (Q6R6I6 whole entry): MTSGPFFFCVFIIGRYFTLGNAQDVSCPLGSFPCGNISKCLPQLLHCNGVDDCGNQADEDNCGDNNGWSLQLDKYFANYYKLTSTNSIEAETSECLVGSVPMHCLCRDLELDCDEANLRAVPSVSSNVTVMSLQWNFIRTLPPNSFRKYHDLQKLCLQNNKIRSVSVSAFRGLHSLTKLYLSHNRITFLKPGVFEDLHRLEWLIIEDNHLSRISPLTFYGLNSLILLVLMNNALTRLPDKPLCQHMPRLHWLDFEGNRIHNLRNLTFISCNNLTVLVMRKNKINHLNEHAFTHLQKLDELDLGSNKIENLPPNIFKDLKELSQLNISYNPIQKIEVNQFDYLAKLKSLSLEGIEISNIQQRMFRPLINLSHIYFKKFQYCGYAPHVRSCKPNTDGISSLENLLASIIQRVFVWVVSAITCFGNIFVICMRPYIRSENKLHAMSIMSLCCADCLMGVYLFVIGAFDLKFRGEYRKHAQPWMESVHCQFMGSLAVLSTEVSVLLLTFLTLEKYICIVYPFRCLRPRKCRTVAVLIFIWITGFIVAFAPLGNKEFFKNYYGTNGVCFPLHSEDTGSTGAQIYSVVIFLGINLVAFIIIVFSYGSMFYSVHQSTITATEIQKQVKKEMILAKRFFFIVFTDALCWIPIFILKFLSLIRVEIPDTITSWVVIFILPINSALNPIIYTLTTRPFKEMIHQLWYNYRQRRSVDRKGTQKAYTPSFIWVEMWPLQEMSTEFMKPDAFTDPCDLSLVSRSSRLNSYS
Description: Agonist activity at rat RXFP1 stably expressed in HEK293 cells assessed as intracellular cAMP accumulation incubated for 30 mins by HTRF assay. In kind it is cell-based.

The nature of data set [4]: Microsomal stability in human liver microsomes assessed as compound remaining measured after 30 mins. In kind it is ADME, Microsome. Particulars: read-out: Stability.
The nature of data set [5]: Microsomal stability in mouse liver microsomes assessed as compound remaining measured after 30 mins. Format: ADME, Microsome. Particulars: read-out: Stability.
The target in data set [6] is T1, Relaxin receptor 1. The data set can be described thus: Agonist activity at mouse RXFP1 stably expressed in HEK293 cells assessed as intracellular cAMP accumulation incubated for 30 mins by HTRF assay. Format: functional, cell-based.
The nature of data set [7]: Thermodynamic aqueous solubility of compound in phosphate buffer at pH 7.4 by reversed-phase ultrahigh pressure liquid chromatography. Particulars: phosphate buffer, read-out: Therm_solubility. Format: physicochemical.
Data set [8] is described as follows: Oral bioavailability in CD-1 mouse at 10 mg/kg. Format: ADME, organism-based. The following applies: in vivo.
The subject of data set [9] is Rattus norvegicus. The data set can be described thus: Chronotropic effect in isoflurane-anesthetized male naive Sprague-Dawley rat model assessed as effect on heart rate at 0.5 mg/kg/min, iv measured after 60 mins. In kind it is functional, organism-based.
Data set [10] has as its system Rattus norvegicus. Description: Chronotropic effect in iv dosed isoflurane-anesthetized male naive Sprague-Dawley rat model assessed as increase in heart rate measured after 60 mins. In kind it is functional, organism-based. The following applies: dose lower […], dose upper 5.0 mg/kg/min.
Data set [11] concerns the target T3, Relaxin receptor 1 (Homo sapiens, UniProt Q9HBX9).
T3 sequence (Q9HBX9 whole entry): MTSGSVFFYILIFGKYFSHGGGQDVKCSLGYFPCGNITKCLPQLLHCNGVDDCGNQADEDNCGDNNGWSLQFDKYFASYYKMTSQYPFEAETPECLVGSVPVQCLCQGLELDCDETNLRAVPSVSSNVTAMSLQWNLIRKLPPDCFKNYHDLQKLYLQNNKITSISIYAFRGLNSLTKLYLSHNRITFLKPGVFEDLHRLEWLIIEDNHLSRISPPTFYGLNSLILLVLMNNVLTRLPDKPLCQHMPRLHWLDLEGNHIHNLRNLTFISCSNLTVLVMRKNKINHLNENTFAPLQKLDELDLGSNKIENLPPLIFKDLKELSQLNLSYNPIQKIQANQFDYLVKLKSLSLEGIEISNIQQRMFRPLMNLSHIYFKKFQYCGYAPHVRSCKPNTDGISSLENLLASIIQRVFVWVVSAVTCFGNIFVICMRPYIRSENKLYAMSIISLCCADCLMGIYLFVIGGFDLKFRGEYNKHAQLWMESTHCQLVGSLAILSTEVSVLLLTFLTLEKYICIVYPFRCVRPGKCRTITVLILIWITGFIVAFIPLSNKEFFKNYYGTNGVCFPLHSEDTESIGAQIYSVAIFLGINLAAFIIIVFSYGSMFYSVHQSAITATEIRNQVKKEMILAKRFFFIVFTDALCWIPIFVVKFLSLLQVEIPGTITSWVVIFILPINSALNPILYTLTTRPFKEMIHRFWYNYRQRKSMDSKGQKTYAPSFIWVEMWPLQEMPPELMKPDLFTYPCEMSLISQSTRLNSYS
Description: Agonist activity at human RXFP1.

Data set [12] has as its target T3, Relaxin receptor 1. Description: Agonist activity at human RXFP1 stably expressed in HEK293 cells assessed as intracellular cAMP accumulation incubated for 30 mins by HTRF assay.

Values after ≈ are worked out from the molar mass of the structure shown.

For orientation: EC50 means the concentration that produces a half-maximal response. As to `COc1ccc(-c2cc(C(=O)O)ccc2F)cc1C(=O)N[C@H]1[C@@H](C(=O)Nc2ccc(F)c(C(F)(F)F)c2)[C@H]2CC[C@@H]1/C2=C\c1cnoc1`, the concentration giving a half-maximal response (EC50) at Relaxin receptor 1 [1] worked out at 580 nM; on Relaxin receptor 1 [3], 880 nM; at Relaxin receptor 1 [6], 580 nM. In addition, the remaining at 0.5 h in [2], in data set [4] and in data set [5] was over 90% each time. In data set [7], the solubility thermodynamic turned out to be 15 µg/mL (≈ 22.5 µM).

A word on the bioavailability: it is dose-corrected exposure relative to a reference, in per cent. For the compound `COc1ccc(-c2cc(C(=O)O)ccc2F)cc1C(=O)N[C@H]1[C@@H](C(=O)Nc2ccc(F)c(C(F)(F)F)c2)[C@H]2CC[C@@H]1/C2=C\C(F)(F)F`, the EC50 at Relaxin receptor 1 [1] and at Relaxin receptor 1 [6] was 500 nM in each case. In addition, the remaining at 0.5 h in [2], in [4] and in data set [5] was over 90% in each case. In [8], this compound registered a bioavailability of 36%.

On to `CNC(=O)OC(C(=O)O)c1ccc(F)c(-c2ccc(OC)c(C(=O)N[C@H]3[C@@H](C(=O)Nc4ccc(F)c(C(F)(F)F)c4)[C@H]4CC[C@@H]3/C4=C\C3CC3)c2)c1` (stereo in doubt; 39), for which the Activity entry in the data set on Rattus norvegicus [9] is “No effect”; with Rattus norvegicus [10], “Dose-dependent-effect”.

As to `COc1cc(F)c(F)cc1C(=O)Nc1ccccc1C(=O)Nc1ccc(F)c(C(F)(F)F)c1`, at Relaxin receptor 1 [11], the EC50 was determined as 1200 nM.

Take `COc1ccc(-c2cncn2C)cc1C(=O)N[C@H]1[C@@H](C(=O)Nc2ccc(F)c(C(F)(F)F)c2)[C@H]2CC[C@@H]1C2=C(C)C`: the EC50 at Relaxin receptor 1 [6] was over 10000 nM. Also, in data set [8], the bioavailability was found to be 29%.

Take `COc1ccc(-c2ccc(C(=O)O)cc2)cc1C(=O)N[C@H]1[C@@H](C(=O)Nc2ccc(F)c(C(F)(F)F)c2)[C@H]2CC[C@@H]1C2=C(C)C`: the EC50 at Relaxin receptor 1 [1] amounted to 2300 nM; on Relaxin receptor 1 [6] it was 2300 nM; at Relaxin receptor 1 [12], 380 nM.

With `COc1ccc(-c2cc(C(O)C(=O)O)ccc2F)cc1C(=O)N[C@H]1[C@@H](C(=O)Nc2ccc(F)c(C(F)(F)F)c2)[C@H]2CC[C@@H]1/C2=C\c1cnoc1` (stereo partly drawn), the remaining at 0.5 h in data set [2], in data set [4] and in data set [5] was over 90% in each case. Moreover, the EC50 on Relaxin receptor 1 [3] came to 1100 nM; on Relaxin receptor 1 [6], 1100 nM; at Relaxin receptor 1 [12], 13 nM. For the same compound, the solubility thermodynamic in [7] was found to be 60 µg/mL (≈ 86 µM).

These data come from ChEMBL document CHEMBL6182920, “The Discovery of C7-Substituted Norbornyl Bisamides as RXFP1 Small Molecule Agonists” (J Med Chem, 2025).
